Assay results as given in PubChem BioAssay AID330 (DTP/NCI, 2004).
Inconclusive results and toxic doses are left out.

Tested on: P388 leukemia ip, CD2F1 mice, survival T/C
Assay: NCI In Vivo Anticancer Drug Screen. Data for tumor model P388 Leukemia (intraperitoneal) in CD2F1 (CDF1) mice
Settings: endpoint: median survival time, higher = longer survival
Outline: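 Mice carrying the transplanted tumor received test compound or vehicle. Survival was recorded in each group, and the value is the treated-group measurement divided by that of the vehicle-treated control group.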

[1] = dose: 60.0 mg/kg/injection, schedule: Q01DX005 (ip), vehicle: saline with Tween-80
[2] = dose: 120.0 mg/kg/injection, schedule: Q01DX005 (ip), vehicle: saline with Tween-80
[3] = dose: 240.0 mg/kg/injection, schedule: Q01DX005 (ip), vehicle: saline with Tween-80
[4] = dose: 25.0 mg/kg/injection, schedule: Q01DX005 (ip), vehicle: saline with Tween-80
[5] = dose: 50.0 mg/kg/injection, schedule: Q01DX005 (ip), vehicle: saline with Tween-80
[6] = dose: 100.0 mg/kg/injection, schedule: Q01DX005 (ip), vehicle: saline with Tween-80
[7] = dose: 50.0 mg/kg/injection, schedule: Q01DX009 (ip), vehicle: saline
[8] = dose: 100.0 mg/kg/injection, schedule: Q01DX009 (ip), vehicle: saline
[9] = dose: 200.0 mg/kg/injection, schedule: Q01DX009 (ip), vehicle: saline
[10] = dose: 200.0 mg/kg/injection, schedule: Q01DX005 (ip), vehicle: saline with Tween-80
[11] = dose: 6.25 mg/kg/injection, schedule: Q01DX005 (ip), vehicle: saline with Tween-80
[12] = dose: 12.5 mg/kg/injection, schedule: Q01DX005 (ip), vehicle: saline with Tween-80

## CCOC(=O)CNC(=O)c1cc2c(cn1)[nH]c1ccccc12
[1]
  T/C: 93 % of control
[2]
  T/C: 86 % of control

## COc1cc(Cc2n[nH]c(=S)n2-c2ccccc2)c(S(N)(=O)=O)cc1OC
[1]
  T/C: 102 % of control
[2]
  T/C: 95 % of control
[3]
  T/C: 94 % of control

## CC(C)Cc1cn(O)c2nc(=N)nc(N)c-2n1
dose: 12.5 mg/kg/injection, schedule: Q01DX009 (ip), vehicle: saline with Tween-80
  T/C: 100 % of control
dose: 25.0 mg/kg/injection, schedule: Q01DX009 (ip), vehicle: saline with Tween-80
  T/C: 93 % of control
dose: 50.0 mg/kg/injection, schedule: Q01DX009 (ip), vehicle: saline with Tween-80
  T/C: 101 % of control

## CC(C)(Br)C(=O)/C=C/c1ccc(Cl)c(Cl)c1
[1]
  T/C: 111 % of control
[2]
  T/C: 118 % of control
[3]
  T/C: 108 % of control

## COc1cc([C@@H]2c3cc4c(cc3[C@H](OC(=O)c3ccccc3C(=O)O)[C@H]3COC(=O)[C@H]23)OCO4)cc(OC)c1OC
dose: 12.5 mg/kg/injection, schedule: Q01DX005 (ip), vehicle: Klucel (hydroxypropylcellulose) (HPC)
  T/C: 119 % of control
dose: 25.0 mg/kg/injection, schedule: Q01DX005 (ip), vehicle: Klucel (hydroxypropylcellulose) (HPC)
  T/C: 119 % of control

## CN(C)CCC(=O)C(=C/C=C/c1ccccc1)C(=O)CCN(C)C
[4]
  T/C: 100 % of control
[5]
  T/C: 121 % of control
[6]
  T/C: 123 % of control

## CCN(CC)C(=O)c1ccncc1C(=O)c1ccncc1
dose: 60.0 mg/kg/injection, schedule: Q01DX005 (ip), vehicle: saline
  T/C: 94 % of control
dose: 120.0 mg/kg/injection, schedule: Q01DX005 (ip), vehicle: saline
  T/C: 100 % of control
dose: 240.0 mg/kg/injection, schedule: Q01DX005 (ip), vehicle: saline
  T/C: 100 % of control

## CC(C)NNC(=O)c1ccncc1
dose: 12.5 mg/kg/injection, schedule: Q01DX009 (ip), vehicle: saline
  T/C: 96 % of control
dose: 25.0 mg/kg/injection, schedule: Q01DX009 (ip), vehicle: saline
  T/C: 101 % of control
[7]
  T/C: 103 % of control
[8]
  T/C: 96 % of control
[9]
  T/C: 98 % of control
dose: 400.0 mg/kg/injection, schedule: Q01DX009 (ip), vehicle: saline
  T/C: 64 % of control

## N#Cc1c(O)c2c(c(O)c1C#N)C(=O)c1ccccc1C2=O
[5]
  T/C: 97 % of control
[6]
  T/C: 95 % of control
[10]
  T/C: 92 % of control

## N/C(=N\OC(=O)Nc1ccc(Cl)c(Cl)c1)c1ccccc1
[7]
  T/C: 101 % of control
[8]
  T/C: 104 % of control
[9]
  T/C: 100 % of control

## C=CCc1cccc2cc(C(=O)OCCCN(CC)CC)c(=O)oc12
[5]
  T/C: 95 % of control
[6]
  T/C: 99 % of control

## CC(=O)OCC(=O)[C@@]1(O)CC[C@H]2[C@@H]3C[C@H](C)C4=CC(=O)CC[C@]4(C)[C@H]3[C@@H](O)C[C@@]21C
dose: 100.0 mg/kg/injection, schedule: Q04DX003 (ip), vehicle: saline with Tween-80
  T/C: 112 % of control
dose: 200.0 mg/kg/injection, schedule: Q04DX003 (ip), vehicle: saline with Tween-80
  T/C: 108 % of control
dose: 400.0 mg/kg/injection, schedule: Q04DX003 (ip), vehicle: saline with Tween-80
  T/C: 95 % of control

## O=C1c2cc([N+](=O)[O-])cc3cc([N+](=O)[O-])cc(c23)C(=O)N1CCCNCCNCCCN1C(=O)c2cc([N+](=O)[O-])cc3cc([N+](=O)[O-])cc(c23)C1=O
[5]
  T/C: 100 % of control
[6]
  T/C: 100 % of control
[10]
  T/C: 100 % of control

## CC1CCC(C(C)C)C(NC(=O)c2cc[n+](C)cc2)C1 (configuration not stated)
dose: 50.0 mg/kg/injection, schedule: Q01DX005 (ip), vehicle: Klucel (hydroxypropylcellulose) (HPC)
  T/C: 100 % of control
dose: 100.0 mg/kg/injection, schedule: Q01DX005 (ip), vehicle: Klucel (hydroxypropylcellulose) (HPC)
  T/C: 108 % of control

## Cc1cc(C(C#N)c2ccc(Cl)cc2)c(Cl)cc1NC(=O)c1cc(I)cc(I)c1O (configuration not stated)
[11]
  T/C: 102 % of control
[12]
  T/C: 94 % of control
[4]
  T/C: 88 % of control

## C[N+](C)=c1ccc2nc3c(ccc4ccccc43)oc-2c1
dose: 3.12 mg/kg/injection, schedule: Q01DX005 (ip), vehicle: saline with Tween-80
  T/C: 105 % of control
[11]
  T/C: 105 % of control
[12]
  T/C: 103 % of control
